pEC50: −log10 of the molar value. Read-outs that look alike come from different tables or passages of the source.
Experiments:
[1] = system: HIV-1 xxBRU (sensitive strain); assay: real-time RT-PCR HIV-1 viral load in culture supernatant, infected human PBMC
[2] = system: HIV-1 xxBRU (sensitive strain); assay: endogenous viral RT assay of culture supernatant, HIV-1 infected human PBMC
[3] = target: T1, mitochondrial DNA polymerase γ (Homo sapiens, UniProt P54098)
T1 sequence (P54098 1-1239): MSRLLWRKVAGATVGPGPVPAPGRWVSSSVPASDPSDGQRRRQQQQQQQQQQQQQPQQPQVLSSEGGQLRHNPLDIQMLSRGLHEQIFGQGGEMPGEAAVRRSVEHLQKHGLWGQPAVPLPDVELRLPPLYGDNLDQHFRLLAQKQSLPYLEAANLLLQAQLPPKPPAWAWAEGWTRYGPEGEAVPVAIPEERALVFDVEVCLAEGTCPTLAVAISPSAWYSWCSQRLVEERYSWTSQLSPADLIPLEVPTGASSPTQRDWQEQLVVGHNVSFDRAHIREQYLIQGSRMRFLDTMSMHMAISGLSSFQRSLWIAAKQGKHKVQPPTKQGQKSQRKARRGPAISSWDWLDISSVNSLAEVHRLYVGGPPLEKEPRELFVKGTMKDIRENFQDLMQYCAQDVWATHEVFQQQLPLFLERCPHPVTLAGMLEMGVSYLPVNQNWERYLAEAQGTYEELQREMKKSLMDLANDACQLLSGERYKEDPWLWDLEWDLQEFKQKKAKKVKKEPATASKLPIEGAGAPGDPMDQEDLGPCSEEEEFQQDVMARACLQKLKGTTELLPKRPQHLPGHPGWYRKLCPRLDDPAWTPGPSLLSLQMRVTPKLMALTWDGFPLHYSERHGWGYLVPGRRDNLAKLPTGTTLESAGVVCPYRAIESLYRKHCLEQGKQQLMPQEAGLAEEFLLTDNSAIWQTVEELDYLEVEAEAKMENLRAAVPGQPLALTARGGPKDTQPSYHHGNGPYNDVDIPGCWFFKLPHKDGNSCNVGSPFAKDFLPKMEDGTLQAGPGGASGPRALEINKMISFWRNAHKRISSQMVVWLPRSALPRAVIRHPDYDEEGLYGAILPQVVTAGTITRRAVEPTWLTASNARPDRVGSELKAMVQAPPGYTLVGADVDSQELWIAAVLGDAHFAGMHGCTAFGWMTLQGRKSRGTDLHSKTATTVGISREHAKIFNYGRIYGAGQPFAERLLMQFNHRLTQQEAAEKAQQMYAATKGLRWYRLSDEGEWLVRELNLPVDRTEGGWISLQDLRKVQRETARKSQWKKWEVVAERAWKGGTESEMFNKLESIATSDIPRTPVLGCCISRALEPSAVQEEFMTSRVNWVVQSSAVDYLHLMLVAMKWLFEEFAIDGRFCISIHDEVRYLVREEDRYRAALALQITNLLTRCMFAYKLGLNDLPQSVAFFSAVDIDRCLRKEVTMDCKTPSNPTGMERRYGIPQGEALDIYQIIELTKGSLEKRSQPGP
T1 sequence (Q9UHN1 26-485 partner limits assumed): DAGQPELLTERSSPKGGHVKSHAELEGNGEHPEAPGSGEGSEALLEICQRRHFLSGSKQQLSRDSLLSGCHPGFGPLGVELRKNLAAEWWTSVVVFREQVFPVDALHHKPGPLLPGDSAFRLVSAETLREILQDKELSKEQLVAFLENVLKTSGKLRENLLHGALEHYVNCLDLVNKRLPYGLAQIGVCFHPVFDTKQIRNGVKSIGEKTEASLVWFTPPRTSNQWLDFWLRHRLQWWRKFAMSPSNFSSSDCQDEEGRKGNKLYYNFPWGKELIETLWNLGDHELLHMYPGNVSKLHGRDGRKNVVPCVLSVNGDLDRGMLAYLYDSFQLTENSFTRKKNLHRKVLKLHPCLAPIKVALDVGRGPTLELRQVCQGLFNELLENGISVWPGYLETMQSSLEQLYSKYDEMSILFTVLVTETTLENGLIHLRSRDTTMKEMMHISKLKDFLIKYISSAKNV

[4] = target: T2, mitochondrial RNA polymerase (Homo sapiens, UniProt O00411); assay: quantitative RT-PCR of mitochondrial COXII RNA calibrated against nuclear RNA transcripts; type: cell-based; conditions: normalized for no treatment
T2 construct: endogenous in cells; HepG2 inferred from the preceding paragraphs
Method: Similar results were also obtained if this technology was carried out in a quantitative reverse-transcriptase-PCR protocol. This approach measures the potential inhibition of antiviral compounds for the mitochondrial RNA polymerase, in comparison with the nuclear RNA polymerases I (generating mainly rRNA transcripts), RNA polymerase II (generating mainly mRNA transcripts), or of lesser importance, RNA polymerase III (generating mainly tRNA transcripts). To obtain such results, amplification of either rRNA, or -actin mRNA as calibrator is required.

[5] = MTS/MTT dye toxicity assay; type: cell-based, human; conditions: human
Method: (§1) After a three day-incubation, or 4 for CEM, or 5 days for PBMC, cell viability and mitochondrial activity were measured in a colorimetric assay using the MTS- or MTT dye (Promega, Wis.).
(§2) The cytotoxicity testing as performed here is a standard technique. Briefly, cells are seeded in 96-well plates at various concentrations (dependent on cell type, duration of assay), typically at 5×10^3 cells per well, in the presence of increasing concentrations of the test compound (0, 1, 3, 10, 33, and 100 μM). After a three day-incubation, cell viability and mitochondrial activity are measured by adding the MTS-dye (Promega), followed by a 3 hours incubation. Afterwards the plates containing the dye are read at 490 nm. Such methodologies are well described and available from the manufacturer (Promega).

[6] = MTS/MTT dye toxicity assay; type: cell-based
Method: as §1, §2

PBMC = assay: MTS/MTT dye toxicity assay; type: cell-based, human; conditions: human PBMC, evaluated up to 100 μM
Method: as §1, §2

[7] = target: T1, mitochondrial DNA polymerase γ; assay: real-time PCR mitochondrial DNA polymerase toxicity (COXII vs β-actin DNA, comparative Ct) in HepG2 cells; conditions: 7-day incubation with up to 10 μM
CEM = assay: MTS/MTT dye toxicity assay; type: cell-based; conditions: CEM cells, evaluated up to 100 μM
Method: as §1, §2

VERO = assay: MTS/MTT dye toxicity assay; type: cell-based; conditions: Vero cells, evaluated up to 100 μM
Method: as §1, §2

[8] = xxBRU, real-time RT-PCR, human PBMC, 5 days
[9] = xxBRU, RT assay, human PBMC, 5 days
[10] = Human immunodeficiency virus 1, PBMC, 120 h

T2 sequence (O00411 42-1230): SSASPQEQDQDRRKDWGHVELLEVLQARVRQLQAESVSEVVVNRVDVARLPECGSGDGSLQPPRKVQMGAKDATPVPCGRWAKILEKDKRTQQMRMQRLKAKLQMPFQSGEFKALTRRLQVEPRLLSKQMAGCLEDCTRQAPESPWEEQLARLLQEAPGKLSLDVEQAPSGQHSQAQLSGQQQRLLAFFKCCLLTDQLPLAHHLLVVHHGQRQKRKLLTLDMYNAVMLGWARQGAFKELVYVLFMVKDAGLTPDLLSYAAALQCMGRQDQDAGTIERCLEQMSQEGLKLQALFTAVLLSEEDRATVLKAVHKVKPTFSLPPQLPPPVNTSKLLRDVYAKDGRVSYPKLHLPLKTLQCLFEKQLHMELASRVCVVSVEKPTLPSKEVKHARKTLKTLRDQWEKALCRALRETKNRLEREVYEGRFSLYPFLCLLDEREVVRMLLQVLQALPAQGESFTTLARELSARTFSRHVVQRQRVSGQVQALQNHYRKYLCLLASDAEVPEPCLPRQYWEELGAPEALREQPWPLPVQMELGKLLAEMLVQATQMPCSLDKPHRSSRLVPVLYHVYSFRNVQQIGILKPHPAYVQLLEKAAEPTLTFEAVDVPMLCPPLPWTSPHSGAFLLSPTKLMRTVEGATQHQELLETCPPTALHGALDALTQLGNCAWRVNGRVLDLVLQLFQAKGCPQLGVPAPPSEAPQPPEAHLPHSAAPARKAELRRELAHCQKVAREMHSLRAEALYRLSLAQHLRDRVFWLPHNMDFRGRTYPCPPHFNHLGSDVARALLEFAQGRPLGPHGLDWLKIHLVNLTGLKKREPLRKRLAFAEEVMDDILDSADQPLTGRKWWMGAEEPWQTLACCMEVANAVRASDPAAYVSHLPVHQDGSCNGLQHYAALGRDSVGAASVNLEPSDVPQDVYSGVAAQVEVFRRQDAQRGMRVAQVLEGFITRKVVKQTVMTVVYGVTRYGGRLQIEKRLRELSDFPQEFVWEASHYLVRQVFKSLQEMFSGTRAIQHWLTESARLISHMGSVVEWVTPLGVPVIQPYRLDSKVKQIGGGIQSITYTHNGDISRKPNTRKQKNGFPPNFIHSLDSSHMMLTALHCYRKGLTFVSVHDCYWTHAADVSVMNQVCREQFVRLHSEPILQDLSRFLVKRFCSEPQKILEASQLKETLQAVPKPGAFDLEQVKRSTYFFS

Q: What does the source list for `Cc1cn([C@H]2C=C[C@@H](CO)O2)c(=O)[nH]c1=O` [d4T]?
A: pEC50 [1, 8]: 8.57; EC90 [1, 8]: 120 nM; pEC50 [2, 9]: 8.47; EC90 [2, 9]: 130 nM

Q: With `Nc1ccn([C@@H]2CS[C@H](CO)O2)c(=O)n1` [3TC] as the molecule, how does the pEC50 [1, 8] read?
A: 7.52

Q: And the EC90 [1, 8]?
A: 120 nM

Q: What about the pEC50 [2, 9] of the same molecule?
A: 7.74

Q: And the EC90 [2, 9]?
A: 77 nM

Q: With `Cc1cn([C@H]2C[C@H](N=[N+]=[N-])[C@@H](CO)O2)c(=O)[nH]c1=O` [AZT] as the molecule, how does the pEC50 [1, 8] read?
A: 8.41

Q: What about the EC90 [1, 8] of the same molecule?
A: 36 nM

Q: What about the pEC50 [2, 9] of the same molecule?
A: 8.47

Q: And the EC90 [2, 9]?
A: 34 nM

Q: With (−)-FTC [(-) FTC] as the molecule, how does the pEC50 [1, 8] read?
A: 8.23

Q: And the EC90 [1, 8]?
A: 88 nM

Q: What about the “mitochondrial DNA reduction as compared to the no-drug control” value [3] of the same molecule?
A: does not induce any significant mitochondrial DNA reduction

Q: What about the pEC50 [2, 9] of the same molecule?
A: 7.96

Q: And the EC90 [2, 9]?
A: 50 nM

Q: And the “mitochondrial (COXII) RNA levels” value [4]?
A: did not affect the COXII RNA levels

Q: Which results are given for `Nc1ccn([C@H]2CC[C@@H](CO)O2)c(=O)n1` [D-DDC]?
A: mitochondrial DNA reduction as compared to the no-drug control [3]: dose-dependent reduction in mitochondrial DNA synthesis; mitochondrial (COXII) RNA levels [4]: significant reduction in mitochondrial RNA levels

Q: With `Nc1ccn([C@@H]2S[C@H](CO)C=C2F)c(=O)n1` [β-D-d4-2′F-(4-S-pentenyl)-C] as the molecule, how does the pEC50 [1, 10] read?
A: 5.57

Q: And the EC90 [1, 10]?
A: 18100 nM

Q: And the CC50 at 5 days [5]?
A: > 100000 nM

Q: And the pEC50 [2, 10]?
A: 5.22

Q: What about the EC90 [2, 10] of the same molecule?
A: 23200 nM

Q: And the CC50 at 3 days ([6]; African green monkey)?
A: > 100000 nM

Q: And the CC50 at 3 days ([6]; human)?
A: > 100000 nM

Q: What about the CC50 at 4 days ([6]; human) of the same molecule?
A: > 100000 nM

Q: With `Nc1ccn([C@H]2S[C@@H](CO)C=C2F)c(=O)n1` [β-L-d4-2′F-(4-S-pentenyl)-C] as the molecule, how does the pEC50 [1, 10] read?
A: 6.40

Q: What about the EC90 [1, 10] of the same molecule?
A: 2680 nM

Q: What about the “cytotoxicity in MTS-dye assay” value (PBMC) of the same molecule?
A: no cytotoxicity was observed

Q: And the CC50 at 5 days ([5]; PBMC, read-out: CC50)?
A: > 100000 nM

Q: What about the pEC50 [2, 10] of the same molecule?
A: 5.79

Q: And the EC90 [2, 10]?
A: 11600 nM

Q: What about the “mitochondrial toxicity (γ-DNA polymerase inhibition)” value [7] of the same molecule?
A: no toxicity

Q: And the “cytotoxicity in MTS-dye assay” value (CEM)?
A: no cytotoxicity was observed

Q: What about the “cytotoxicity in MTS-dye assay” value (VERO) of the same molecule?
A: no cytotoxicity was observed

Q: And the CC50 at 3 days ([6]; African green monkey, VERO, read-out: CC50)?
A: > 100000 nM

Q: And the CC50 at 4 days ([6]; human, CEM, read-out: CC50)?
A: > 100000 nM

Q: And the CC50 at 3 days ([6]; human, HepG2, read-out: CC50)?
A: > 100000 nM

Reference: patent US7919247B2, “Simultaneous quantification of nucleic acids in diseased cells” (Pharmasset, Inc., priority 2000, dated 2011)
